Results: patent US20260158026A1, “METHODS OF TREATING CANCER AND COMPOSITIONS FOR THE SAME” (MARSAL THERAPEUTICS, INC., priority 2022, published 2026)
Read-outs that look alike come from different tables or passages of the source.

Columns and labels:
GBM cells [1] = assay: Mitochondrial membrane potential (JC1 staining); assay type: cell-based, human; conditions: CCCP positive control, DMSO negative control; 24, 48, 72 hrs, FIGS. 5A and 5B
Protocol: FIG. 5B is a bar graph of JC1 staining for mitochondrial depolarization in GMB cells treated with DMSO (negative control), CCCP (positive control), or Compound 1 (CMPD1) at 24 hrs, 48 hrs, and 72 hrs according to Example 6.
GBM cells were treated with Compound 1, carbonyl cyanide m-chlorophenyl hydrazine (CCCP; positive control), or DMSO (negative control) and the mitochondrial membrane potential (indicative of functional status of the GBM cells) was measured and analyzed.

[2] = tested on: GBM cancer cell line xenograft; assay: GBM xenograft stereotactically implanted into the brain of nude mice; assay type: in vivo; conditions: oral administration, versus mice not treated
From the text: A GBM cancer cell line was xenografted into 8-week old male nude mice and the tumor was allowed to develop for four weeks. The GBM cells were stereotactically implanted into the brain and allowed to grow for four weeks. After four weeks, treatment with Compound 1 via oral administration was started (Day 1). The mice were allowed to live until the ethical endpoint of the study was reached. Body weight and activity of animals were monitored continuously.

[3] = previous clinical trials; cited from earlier work
[4] = tested on: identified hits (BMPR1A, UTP23, ARHGAP33, ITSN1); assay: Pull-down assay using biotin labeled Compound 1; assay type: binding, human; conditions: pull-down with biotin labeled Compound 1, FIG. 8B
Protocol: (§1) With reference to Step I in FIGS. 7A and 7B, whole genome CRISPR-Cas9 studies (B. Schmierer, Mol Systems Biol., 13, 945 (2017)) were carried out to identify potential targets that could explain the effect produced by Compound 1 on cancer cells. […] With reference to Step II in FIG. 7A and FIGS. 8A and 8B, after the CRISPR screening analysis was complete, the expression of identified hits were confirmed in GB cells as shown in FIG. 8A. The binding of Compound 1 to the identified hits was established via a pull-down assay using biotin labeled Compound 1 (FIG. 8B).

fibroblasts = assay: Long-term exposure assay; assay type: cell-based, human; conditions: 0.1 μM, 21 days, FIG. 3B
fibroblast control = assay: Immunostaining and quantification of Annexin V positive cells; assay type: cell-based, human
[5] = tested on: patient-derived glioma cells; assay: siRNA knockdown of CRISPR-Cas9 hits followed by IC50 measurement; assay type: cell-based, human
Protocol: FIG. 7C is a graph of cell viability after treatment with Compound 1 for certain targets identified in FIG. 7B in patient-derived glioma cells followed by measurement of IC50 post-treatment with serial dilution of Compound 1 according to Example 8.
as §1

[6] = tested on: GBM cells isolated from an additional five patients; assay: IC50 measurement, cell viability assay; assay type: cell-based; conditions: Homo sapiens, FIG. 2
Protocol: (§2) Negative (100% DMSO) and positive (10 mM Staurosporine in DMSO) controls were placed in columns 10 and 11, respectively. The plate was diluted with 180 μL growth media/well and 5 μL of the resulting compound solution was transferred in quadruplicate to the assay plate. For the assay plate, 3,000 cells/well were plated in a 384 well clear bottom μL plate and allowed to adhere for at least 3 hours. […] The plates were incubated for 1, 2, 3, or 4 days. ATP levels were measured after incubation.
Serial dilutions in FIG. 2 show the effect of Compound 1 on GBM cells isolated from an additional five patients.

[7] = tested on: glioma cells from patient 1; assay: Immunostaining and quantification of Annexin V positive cells; assay type: cell-based, human
Patient 1 GBM cells = assay: IC50 measurement, cell viability assay; assay type: cell-based; conditions: Homo sapiens
Protocol: as §2, with “incubation. Based on the results of Example 1, Compound 1 was selected for further evaluation.” for “incubation.”

Lung Cancer (H1299) = assay: IC50 measurement, cell viability assay; assay type: cell-based; conditions: Homo sapiens, NCI-H1299, 96 h, after 4 days of treatment
Protocol: as §2, with “incubation. Based on the results of Example 1, Compound 1 was selected for further evaluation.” for “incubation.”

[8] = tested on: Breast Cancer (MDA-MB-231); assay: IC50 measurement, cell viability assay; assay type: cell-based; conditions: Homo sapiens, MDA-MB-231, 96 h, after 4 days of treatment
Protocol: as §2, with “incubation. Based on the results of Example 1, Compound 1 was selected for further evaluation.” for “incubation.”

[9] = tested on: Pancreatic Cancer (MIA-PACA); assay: IC50 measurement, cell viability assay; assay type: cell-based; conditions: Homo sapiens, MIA PaCa-2, 96 h, after 4 days of treatment
Protocol: as §2, with “incubation. Based on the results of Example 1, Compound 1 was selected for further evaluation.” for “incubation.”

Colon Cancer (HT-29) = assay: IC50 measurement, cell viability assay; assay type: cell-based; conditions: Homo sapiens, HT-29, 96 h, after 4 days of treatment
Protocol: as §2, with “incubation. Based on the results of Example 1, Compound 1 was selected for further evaluation.” for “incubation.”

GBM cells [10] = assay: Mitochondria vacuolization by Transmission Electron Microscopy; assay type: cell-based, human; conditions: 2.5 μM, 5 μM, or 10 μM; 3, 6, 12, 24, and 48 hours
Protocol: Referring to FIGS. 6A and 6B, the GBM cells were analyzed via Transmission Electron (TEM) Microscopy after 3, 6, 12, 24, and 48 hours of incubation.

[11] = tested on: fibroblast cells from patient 1; assay: IC50 measurement, cell viability assay; assay type: cell-based; conditions: Homo sapiens
Protocol: as §2

[12] = tested on: glioma cells from patient 1; assay: Immunostaining with Caspase 3 antibody (apoptosis marker); assay type: cell-based, human; conditions: compared to positive control staurosporin, FIGS. 4C and 4D
[13] = tested on: Patient-derived GBM cells; assay: Long-term exposure assay; assay type: cell-based, human; conditions: 0.1 μM, incubated for 21 days, FIG. 3A
Protocol: Long-term Exposure Assay: Measurements for long-term assays were performed on days 4, 8, 14, and 21. 3,000 cells/well were plated in a 384 well plate (for day 4 assay), a 96 well plate (for day 8 assay), a 24 well plate (for day 14 assay), a 6 well plate (for day 21 assay), or a 10 cm plate (for day 30 assay) and allowed to adhere as above. Following this, media was exchanged to DMEM (without FBS+1× Penstrep) with either DMSO as control treatment or compound (at final concentration of 0.1 μM or 5 μM). Every four days, media was replaced with fresh DMEM (without FBS+1×Penstrep) comprising DMSO (control) or compound. At the end of days 4, 8, 14, and 21 cell viability assays were performed.
Patient-derived GBM cells were treated with Compound 1 at concentrations of 5 μM or 0.1 μM and incubated for 21 days. Fibroblasts were used as a control (FIG. 3B).

Glioma cells = assay: Cytotoxicity and apoptosis assays (ApoTox-Glo); assay type: cell-based, human
GBM cells [14] = assay: Combination with FDA approved oncology drugs, cell viability; assay type: cell-based, human; conditions: combination with Compound 1, FIGS. 12A-C
From the text: The FDA approved oncology drugs included temozolomide (TMZ), ixabepilone, cladribine, enzalutamide, omacetaxine mepesuccinate, epothilones, erubulin, and latrunculin.

Fc1ccc(C(OCCN2CCN(CCCc3ccccc3)CC2)c2ccc(F)cc2)cc1 [Compound 1, vanoxerine]
Mitochondrial membrane potential (GBM cells [1]): depolarization of mitochondria in a manner similar to CCCP
Physical activity [2]: increased physical activity
Tumor size ([2]; FIG. 9): reduction in tumor size
Bodyweight ([2]; FIG. 10): reduced loss in bodyweight
Life span ([2]; FIG. 11): increased life span
Safety when administered to humans [3]: establishing its safety
Binding to the identified hits [4]: established
Cytotoxicity towards fibroblasts, long-term exposure (fibroblasts): without exhibiting cytotoxicity
Apoptosis positive cells, Annexin V (fibroblast control): do not produce more apoptosis positive cells
IC50 after knockdown of ARHGAP33 versus controls ([5]; siRNA knockdown of ARHGAP33, FIG. 7C): higher IC50 values
IC50 after knockdown of BMPR1A versus controls ([5]; siRNA knockdown of BMPR1A, FIG. 7C): higher IC50 values
IC50 after knockdown of ITSN1 versus controls ([5]; siRNA knockdown of ITSN1, FIG. 7C): higher IC50 values
IC50 [6]: 4720 nM
Apoptosis positive cells, Annexin V [7]: do not produce more apoptosis positive cells
IC50 (Patient 1 GBM cells; 96 h, after 4 days of treatment, cell viability assay, read-out: Mean IC50, Brain Cancer (Patient 1 GBM cells)): 2200 nM
IC50 (Patient 1 GBM cells; Glioma cell, 96 h, serial dilution, 4 days of incubation, FIG. 1B, read-out: IC50 for glioma cells from patient 1): 4900 nM
IC50 (Patient 1 GBM cells; various cell passages, FIG. 1C, range printed from about 300 nM to about 6.4 μM, read-out: IC50 for GBM cells, lower end of range over cell passages): ~300 nM
IC50 (Patient 1 GBM cells; various cell passages, FIG. 1C, range printed from about 300 nM to about 6.4 μM, read-out: IC50 for GBM cells, upper end of range over cell passages): ~6400 nM
IC50 (Lung Cancer (H1299)): 2100 nM
IC50 [8]: 2300 nM
IC50 [9]: 2400 nM
IC50 (Colon Cancer (HT-29)): 2400 nM
Vacuolization of mitochondria (TEM) (GBM cells [10]): induced vacuolization of mitochondria
IC50 ([11]; 96 h, serial dilution, 4 days of incubation, FIG. 1B, read-out: IC50 for fibroblast cells from patient 1): 13800 nM
IC50 ([11]; various cell passages, FIG. 1D, read-out: IC50 for the fibroblasts, range over cell passages): 16000 to 41000 nM
Apoptosis positive cells, Caspase 3 immunostaining [12]: did not produce apoptosis positive cells
Effect on GBM cells, long-term exposure [13]: eliminated the GBM cells
Apoptosis (ApoTox-Glo) (Glioma cells): apoptosis was not initiated
Cytotoxicity (ApoTox-Glo) (Glioma cells): immense cytotoxicity

Nc1nc(Cl)nc2c1ncn2[C@H]1C[C@H](O)[C@@H](CO)O1 [cladribine]
Cell viability, Compound 1 in the additional presence of the named drug (GBM cells [14]): statistically significant decreases in cell viability

CNC(=O)c1ccc(N2C(=S)N(c3ccc(C#N)c(C(F)(F)F)c3)C(=O)C2(C)C)cc1F [enzalutamide]
Cell viability, Compound 1 in the additional presence of the named drug (GBM cells [14]): statistically significant decreases in cell viability

C/C(=C\c1csc(C)n1)[C@@H]1C[C@@H]2O[C@]2(C)CCC[C@H](C)[C@H](O)[C@@H](C)C(=O)C(C)(C)[C@@H](O)CC(=O)N1 [ixabepilone]
Cell viability, Compound 1 in the additional presence of the named drug (GBM cells [14]): statistically significant decreases in cell viability
